{"source": "ChEMBL document CHEMBL4406842", "about": "“Synthesis and in vitro biological evaluation of novel derivatives of Flexicaulin A condensation with amino acid trifluoroacetate” (Eur J Med Chem, 2019)", "key": {"TE-1 [1]": {"test_system": "TE-1", "experiment": "Induction of apoptosis in human TE1 cells assessed as increase in cleaved caspase-9 level at 0.75 to 3 umol/L incubated for 48 hrs by Western blot analysis", "format": "functional, cell-based"}, "Homo sapiens [2]": {"organism": "Homo sapiens", "experiment": "Activation of SAPK/JNK signalling pathway in human TE1 cells assessed as increase in ASK1 phosphorylation at 1.5 and 3 umol/L incubated for 48 hrs by Western blot analysis", "format": "cell-based"}, "TE-1 [3]": {"test_system": "TE-1", "experiment": "Induction of apoptosis in human TE1 cells assessed as increase in Bax expression at 0.75 to 3 umol/L incubated for 48 hrs by Western blot analysis", "format": "functional, cell-based"}, "TE-1 [4]": {"test_system": "TE-1", "experiment": "Induction of apoptosis in human TE1 cells assessed as early apoptotic cells at 1.5 umol/L incubated for 48 hrs by annexin V-FITC and propidium iodide staining based flow cytometry (reference value: 0.9 %)", "format": "functional"}, "Homo sapiens [5]": {"organism": "Homo sapiens", "experiment": "Activation of SAPK/JNK signalling pathway in human TE1 cells assessed as increase in JNK phosphorylation at 0.75 to 3 umol/L incubated for 48 hrs by Western blot analysis", "format": "cell-based"}, "TE-1 [6]": {"test_system": "TE-1", "experiment": "Induction of apoptosis in human TE1 cells assessed as early apoptotic cells at 0.75 umol/L incubated for 48 hrs by annexin V-FITC and propidium iodide staining based flow cytometry (reference value: 0.9 %)", "format": "functional"}, "TE-1 [7]": {"test_system": "TE-1", "experiment": "Induction of ROS production in human TE1 cells at 1.5 umol/L incubated for 48 hrs by DCFH-DA staining based flow cytometry (reference value: 2.4 %)", "format": "functional"}, "Homo sapiens [8]": {"organism": "Homo sapiens", "experiment": "Activation of SAPK/JNK signalling pathway in human TE1 cells assessed as increase in MKK4 phosphorylation at 0.75 to 3 umol/L incubated for 48 hrs by Western blot analysis", "format": "cell-based"}, "TE-1 [9]": {"test_system": "TE-1", "experiment": "Induction of apoptosis in human TE1 cells assessed as late apoptotic cells at 3 umol/L incubated for 48 hrs by annexin V-FITC and propidium iodide staining based flow cytometry (reference value: 2.8 %)", "format": "functional"}, "TE-1 [10]": {"test_system": "TE-1", "experiment": "Induction of ROS production in human TE1 cells at 0.75 umol/L incubated for 48 hrs by DCFH-DA staining based flow cytometry (reference value: 2.4 %)", "format": "functional"}, "TE-1 [11]": {"test_system": "TE-1", "experiment": "Induction of apoptosis in human TE1 cells assessed as decrease in Bcl2 expression at 0.75 to 3 umol/L incubated for 48 hrs by Western blot analysis", "format": "functional, cell-based"}, "TE-1 [12]": {"test_system": "TE-1", "experiment": "Induction of apoptosis in human TE1 cells assessed as increase in Bak protein level at 0.75 to 3 umol/L incubated for 48 hrs by Western blot analysis", "format": "functional, cell-based"}, "[13]": {"experiment": "Solubility of compound in water", "format": "physicochemical", "conditions": "buffer"}, "GES1": {"test_system": "GES1", "experiment": "Cytotoxicity against human GES-1 cells assessed as reduction in cell viability by SRB assay", "format": "cell-based"}, "TE-1 [14]": {"test_system": "TE-1", "experiment": "Induction of apoptosis in human TE1 cells assessed as late apoptotic cells at 0.75 umol/L incubated for 48 hrs by annexin V-FITC and propidium iodide staining based flow cytometry (reference value: 2.8 %)", "format": "functional"}, "MGC-803": {"test_system": "MGC-803", "experiment": "Antiproliferative activity against human MGC803 cells assessed as reduction in cell viability incubated for 72 hrs by SRB assay", "format": "functional, cell-based", "conditions": "MGC-803, 72 h"}, "TE-1 [15]": {"test_system": "TE-1", "experiment": "Antiproliferative activity against human TE1 cells assessed as reduction in cell viability incubated for 72 hrs by SRB assay", "format": "functional, cell-based"}, "TE-1 [16]": {"test_system": "TE-1", "experiment": "Induction of ROS production in human TE1 cells at 3 umol/L incubated for 48 hrs by DCFH-DA staining based flow cytometry (reference value: 2.4 %)", "format": "functional"}, "TE-1 [17]": {"test_system": "TE-1", "experiment": "Induction of apoptosis in human TE1 cells assessed as increase in Bax-Bcl2 ratio at 0.75 to 3 umol/L incubated for 48 hrs by Western blot analysis", "format": "functional, cell-based"}, "TE-1 [18]": {"test_system": "TE-1", "experiment": "Induction of apoptosis in human TE1 cells assessed as late apoptotic cells at 1.5 umol/L incubated for 48 hrs by annexin V-FITC and propidium iodide staining based flow cytometry (reference value: 2.8 %)", "format": "functional"}, "A549": {"test_system": "A549", "experiment": "Antiproliferative activity against human A549 cells assessed as reduction in cell viability incubated for 72 hrs by SRB assay", "format": "functional, cell-based", "conditions": "A549, 72 h"}, "TE-1 [19]": {"test_system": "TE-1", "experiment": "Inhibition of colony formation in human TE1 cells at 1 umol/l incubated for 24 hrs supplemented with fresh medium and measured after 7 days by crystal violet staining based assay relative to control", "format": "functional"}, "TE-1 [20]": {"test_system": "TE-1", "experiment": "Induction of apoptosis in human TE1 cells assessed as increase in Bad protein level at 0.75 to 3 umol/L incubated for 48 hrs by Western blot analysis", "format": "functional, cell-based"}, "MCF7": {"test_system": "MCF7", "experiment": "Antiproliferative activity against human MCF7 cells assessed as reduction in cell viability incubated for 72 hrs by SRB assay", "format": "functional, cell-based", "conditions": "MCF7, 72 h"}, "TE-1 [21]": {"test_system": "TE-1", "experiment": "Induction of apoptosis in human TE1 cells assessed as increase in cleaved PARP level at 0.75 to 3 umol/L incubated for 48 hrs by Western blot analysis", "format": "functional, cell-based"}, "TE-1 [22]": {"test_system": "TE-1", "experiment": "Induction of apoptosis in human TE1 cells assessed as increase in NOXA protein level at 0.75 to 3 umol/L incubated for 48 hrs by Western blot analysis", "format": "functional, cell-based"}, "TE-1 [23]": {"test_system": "TE-1", "experiment": "Induction of apoptosis in human TE1 cells assessed as early apoptotic cells at 3 umol/L incubated for 48 hrs by annexin V-FITC and propidium iodide staining based flow cytometry (reference value: 0.9 %)", "format": "functional"}, "TE-1 [24]": {"test_system": "TE-1", "experiment": "Induction of apoptosis in human TE1 cells assessed as increase in cleaved caspase-3 level at 0.75 to 3 umol/L incubated for 48 hrs by Western blot analysis", "format": "functional, cell-based"}, "TE-1 [25]": {"test_system": "TE-1", "experiment": "Inhibition of colony formation in human TE1 cells incubated for 24 hrs supplemented with fresh medium and measured after 7 days by crystal violet staining based assay", "format": "functional, cell-based"}}, "note": "Activity calls are given as the source filed them. The rule behind the calls is not given here."}
{"smiles": "C=C1C(=O)[C@]23[C@H](OC(=O)[C@H](Cc4ccccc4)NC)[C@H]1C[C@H](O)[C@H]2[C@]1(COC(C)=O)CCCC(C)(C)[C@H]1C[C@H]3OC.O=C(O)C(F)(F)F", "values": [{"measurement": "Activity", "setting": "TE-1 [1]", "result": "Active"}, {"measurement": "Activity", "setting": "Homo sapiens [2]", "result": "Active"}, {"measurement": "Activity", "setting": "TE-1 [3]", "result": "Active"}, {"measurement": "Activity", "setting": "TE-1 [4]", "result": 5, "unit": "%"}, {"measurement": "Activity", "setting": "Homo sapiens [5]", "result": "Active"}, {"measurement": "Activity", "setting": "TE-1 [6]", "result": 2.8, "unit": "%"}, {"measurement": "Activity", "setting": "TE-1 [7]", "result": 36.4, "unit": "%"}, {"measurement": "Activity", "setting": "Homo sapiens [8]", "result": "Active"}, {"measurement": "Activity", "setting": "TE-1 [9]", "result": 30.7, "unit": "%"}, {"measurement": "Activity", "setting": "TE-1 [10]", "result": 10.4, "unit": "%"}, {"measurement": "Activity", "setting": "TE-1 [11]", "result": "Active"}, {"measurement": "Activity", "setting": "TE-1 [12]", "result": "Active"}, {"measurement": "solubility", "setting": "[13]", "result": "Soluble"}, {"measurement": "Activity", "setting": "GES1", "result": "Tde and Dose-dependent effect"}, {"measurement": "Activity", "setting": "TE-1 [14]", "result": 5.1, "unit": "%"}, {"measurement": "IC50", "setting": "MGC-803", "result": 1500, "unit": "nM"}, {"measurement": "inhibition", "setting": "TE-1 [15]", "result": "Dose-dependent effect"}, {"measurement": "IC50", "setting": "TE-1 [15]; TE-1, 72 h", "result": 750, "unit": "nM"}, {"measurement": "Activity", "setting": "TE-1 [16]", "result": 73.1, "unit": "%"}, {"measurement": "Activity", "setting": "TE-1 [17]", "result": "Active"}, {"measurement": "Activity", "setting": "TE-1 [18]", "result": 12, "unit": "%"}, {"measurement": "IC50", "setting": "A549", "result": 1200, "unit": "nM"}, {"measurement": "inhibition at 1 µM", "setting": "TE-1 [19]", "result": 100, "unit": "%"}, {"measurement": "Activity", "setting": "TE-1 [20]", "result": "Active"}, {"measurement": "IC50", "setting": "MCF7", "result": 890, "unit": "nM"}, {"measurement": "Activity", "setting": "TE-1 [21]", "result": "Active"}, {"measurement": "Activity", "setting": "TE-1 [22]", "result": "Active"}, {"measurement": "Activity", "setting": "TE-1 [23]", "result": 8.7, "unit": "%"}, {"measurement": "Activity", "setting": "TE-1 [24]", "result": "Active"}, {"measurement": "inhibition", "setting": "TE-1 [25]", "result": "Dose-dependent effect"}]}
